From ChEMBL document CHEMBL1136235, “Synthesis and biological activity of piperazine-based dual MMP-13 and TNF-alpha converting enzyme inhibitors” (Bioorg Med Chem Lett, 2003) come the findings set out here.

Data set [1] deals with T1, Disintegrin and metalloproteinase domain-containing protein 17 (Homo sapiens, UniProt P78536). Put plainly: Inhibition of Tumor necrosis factor-alpha (TNF-alpha) release in human whole blood. The class given is functional, tissue-based.
The target in data set [2] is T2, Interstitial collagenase (Homo sapiens, UniProt P03956).
T2 sequence (P03956 whole entry): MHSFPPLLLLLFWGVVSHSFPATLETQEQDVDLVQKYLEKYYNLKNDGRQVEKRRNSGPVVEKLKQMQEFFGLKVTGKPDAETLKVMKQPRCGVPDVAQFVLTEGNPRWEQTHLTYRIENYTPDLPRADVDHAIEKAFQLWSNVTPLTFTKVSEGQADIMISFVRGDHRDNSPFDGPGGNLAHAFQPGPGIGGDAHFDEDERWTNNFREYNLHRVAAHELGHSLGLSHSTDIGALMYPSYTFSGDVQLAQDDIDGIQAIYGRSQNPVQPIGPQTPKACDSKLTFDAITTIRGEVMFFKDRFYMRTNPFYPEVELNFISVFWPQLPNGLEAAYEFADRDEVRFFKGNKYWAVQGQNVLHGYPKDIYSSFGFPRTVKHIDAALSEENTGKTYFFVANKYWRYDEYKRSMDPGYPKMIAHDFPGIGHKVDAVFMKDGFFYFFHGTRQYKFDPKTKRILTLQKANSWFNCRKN
Put plainly: In vitro inhibition of matrix metalloprotease-1.

For data set [3], the target named is Collagenase 3 (Homo sapiens, UniProt P45452). Put plainly: In vitro inhibition of matrix metalloprotease-13.
The target in data set [4] is T1, Disintegrin and metalloproteinase domain-containing protein 17. Put plainly: Inhibition of human recombinant tumor necrosis factor-alpha converting enzyme.
Data set [5] concerns Rattus norvegicus. Put plainly: Inhibition of TNF-alpha production in an acute rat LPS-induced model at the dose of 30 mg/kg. The class given is functional.
Data set [6] can be described thus: Pharmacokinetic property (Vdss) in rat. The class given is ADME, organism-based. The conditions noted are these: in vivo, read-out: Vdss.
Data set [7] in a line: (§1) Pharmacokinetic property (Clp) in rat. The data set is classed as ADME, organism-based. The conditions noted are these: plasma, read-out: Clp.
Data set [8] in a line: Half life in rat i.v. The settings on record: in vivo, iv. The data set is classed as ADME, organism-based.
For data set [9], the species on record is Rattus norvegicus. Described as §1. The class given is ADME, organism-based. The conditions noted are these: in vivo.
Data set [10] in a line: Half in rat i.v. The settings on record: in vivo, iv. The data set is classed as ADME, organism-based.
The species entered for data set [11] is Rattus norvegicus. Put plainly: Concentration required for TNF-alpha production in an acute rat LPS-induced model. The class given is functional.

pIC50: −log10 of the molar value.

T1 sequence (P78536 whole entry, the tested form may be a part): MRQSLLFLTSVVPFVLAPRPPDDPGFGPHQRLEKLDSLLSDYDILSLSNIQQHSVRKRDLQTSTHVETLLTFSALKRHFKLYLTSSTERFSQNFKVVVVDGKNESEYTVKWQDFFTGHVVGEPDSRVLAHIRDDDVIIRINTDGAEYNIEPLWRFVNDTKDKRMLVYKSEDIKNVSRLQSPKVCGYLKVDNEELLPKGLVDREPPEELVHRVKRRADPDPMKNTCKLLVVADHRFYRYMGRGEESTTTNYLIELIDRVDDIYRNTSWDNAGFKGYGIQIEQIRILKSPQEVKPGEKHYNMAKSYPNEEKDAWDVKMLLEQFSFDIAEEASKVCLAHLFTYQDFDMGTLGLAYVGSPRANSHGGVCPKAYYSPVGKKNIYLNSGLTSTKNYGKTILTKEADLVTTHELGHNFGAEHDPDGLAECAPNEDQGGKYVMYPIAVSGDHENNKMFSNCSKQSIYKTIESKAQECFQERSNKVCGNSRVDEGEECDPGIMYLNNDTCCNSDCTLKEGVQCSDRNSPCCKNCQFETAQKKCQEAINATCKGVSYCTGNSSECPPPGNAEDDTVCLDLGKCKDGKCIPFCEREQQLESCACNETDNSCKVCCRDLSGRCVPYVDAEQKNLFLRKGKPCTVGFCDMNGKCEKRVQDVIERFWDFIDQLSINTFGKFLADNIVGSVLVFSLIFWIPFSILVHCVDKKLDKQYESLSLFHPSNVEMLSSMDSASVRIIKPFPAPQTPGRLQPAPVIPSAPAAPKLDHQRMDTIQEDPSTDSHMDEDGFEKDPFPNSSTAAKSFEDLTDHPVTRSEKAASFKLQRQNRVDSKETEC

Consider `C[C@@H]1NCCN(S(=O)(=O)c2ccc(OCc3ccccc3)cc2)[C@H]1C(=O)NO`, for which the pIC50 in data set [1] is 4.74; in data set [2], 4.92; in data set [3], 7.96.

Regarding `CCc1ccccc1COc1ccc(S(=O)(=O)N2CCN(C(C)=O)[C@@H](C)[C@@H]2C(=O)NO)cc1`, the pIC50 in [1] was 6.22; in [2], 5.17; in [4], 8.15; in data set [3] it was 7.40.

For the compound `CC[C@H](C)[C@H](NC(=O)C(CC(C)C)[C@H](C(C)C)N(O)C=O)C(=O)Nc1ccccn1` (stereo partly specified), the results for the pIC50 in data set [2], in data set [4] and in data set [3] were 7.72, 7.40 and 8.15, respectively.

Consider `Cc1ccccc1COc1ccc(S(=O)(=O)N2CCN(C)[C@@H](C)[C@@H]2C(=O)NO)cc1`, for which the pIC50 in [1] is 4.48; in data set [4] it was 7.51.

On to `CC(=O)N1CCN(S(=O)(=O)c2ccc(OCc3cncc4ccccc34)cc2)[C@@H](C(=O)NO)[C@@H]1C`, for which the pIC50 was 6.40 in data set [1], 5.19 in data set [2] and 7.01 in data set [3].

Take `CC(=O)N1CCN(S(=O)(=O)c2ccc(OCc3cc(F)ccc3C)cc2)[C@@H](C(=O)NO)[C@@H]1C`: the pIC50 in [1] was 6.00; in data set [2], 5.72; in data set [4], 8.15; in [3], 8.15.

`Cc1ccccc1COc1ccc(S(=O)(=O)N2CCN[C@@H](C)[C@@H]2C(=O)NO)cc1`: in data set [5], the inhibition in vivo at 30 mg/kg came to 39%. The Vd in data set [6] stood at 1.1 L/kg. Besides, the negative-log IC50 (pIC50) in data set [1] was 5.70; in [2] it was 4.92; in data set [3] it was 7.72. Besides, the clearance in [7] came to 83 mL/min/kg. The half-life in [8] was 14.4 min.

With `CC(=O)N1CCN(S(=O)(=O)c2ccc(OCc3cccnc3C)cc2)[C@@H](C(=O)NO)[C@@H]1C`, the pIC50 in data set [1] was 6.10; in data set [2], 5.47; in data set [4], 8.30; in data set [3], 8.10.

With `Cc1ccccc1COc1ccc(S(=O)(=O)N2CCN(C(=O)NC(C)C)[C@@H](C)[C@@H]2C(=O)NO)cc1`, the pIC50 in [1] was 5.52; in [2], 5.85; in [4] it was 7.47; in [3] it was 8.40.

`Cc1ccccc1COc1ccc(S(=O)(=O)N2CCN(Cc3ccccc3)[C@@H](C)[C@@H]2C(=O)NO)cc1`: the negative logarithm of the IC50 (pIC50) was 4.48 in [1], 4.77 in data set [2] and 7.17 in data set [4].

Compound `Cc1ccccc1COc1ccc(S(=O)(=O)N2CCN(S(C)(=O)=O)[C@@H](C)[C@@H]2C(=O)NO)cc1` gave an inhibition in vivo at 30 mg/kg in data set [5] of 55%. For the same compound, the Vd in data set [6] came to 2.1 L/kg. Further, the pIC50 in [1] was 6.00; in data set [2] it was 5.89; in data set [4], 8.22; in data set [3] it was 8.40. The compound also yielded a Clp in [9] of 98 mL/min/kg. This compound also gave a half-life in data set [10] of 12.6 min.

Regarding `CC(=O)N1CCN(S(=O)(=O)c2ccc(OCc3ccccc3C(F)(F)F)cc2)[C@@H](C(=O)NO)[C@@H]1C`, the pIC50 was 5.70 in [1], 5.00 in data set [2], 7.96 in [4] and 6.90 in data set [3].

Take `CCOC(=O)N1CCN(S(=O)(=O)c2ccc(OCc3ccccc3C)cc2)[C@@H](C(=O)NO)[C@@H]1C`: the negative logarithm of the IC50 (pIC50) was 5.52 in data set [1], 5.82 in [2], 7.55 in data set [4] and 8.22 in data set [3].

Turning to `COC(=O)N1CCN(S(=O)(=O)c2ccc(OCc3ccccc3C)cc2)[C@@H](C(=O)NO)[C@@H]1C`, the negative logarithm of the IC50 (pIC50) is 5.70 in data set [1], 5.82 in data set [2], 7.85 in data set [4] and 8.40 in data set [3].

As to `CC(=O)N1CCN(S(=O)(=O)c2ccc(OCc3ccc(F)cc3)cc2)[C@@H](C(=O)NO)[C@@H]1C`, the pIC50 is 5.70 in [1], 5.77 in data set [2], 8.22 in [4] and 8.52 in data set [3].

Take `Cc1ccc(S(=O)(=O)N2CCN(S(=O)(=O)c3ccc(OCc4ccccc4C)cc3)[C@@H](C(=O)NO)[C@@H]2C)cc1`: the figures for the negative logarithm of the IC50 (pIC50) in data set [1] and in data set [4] were 4.59 and 7.49, respectively.

For the compound `CC(=O)N1CCN(S(=O)(=O)c2ccc(OCc3cc(F)cc(F)c3)cc2)[C@@H](C(=O)NO)[C@@H]1C`, the pIC50 was 6.00 in [1], 5.42 in data set [2], 8.22 in data set [4] and 7.70 in data set [3].

Take `CC(=O)N1CCN(S(=O)(=O)c2ccc(OCc3ccccc3C)cc2)[C@@H](C(=O)NO)[C@@H]1C`: the Vd in data set [6] was 0.6 L/kg. For the same compound, the pIC50 was 6.00 in data set [1] and 8.22 in [4]. Also, the clearance in data set [7] stood at 54 mL/min/kg. This compound also showed a half-life in data set [8] of 16.2 min. The same compound displayed an ED50 in data set [11] of 17 mg/kg.

For `C#CCOc1ccc(S(=O)(=O)N(C)c2c(C)cc(Br)cc2C(=O)NO)cc1`, the negative logarithm of the IC50 (pIC50) was 7.28 in data set [2] and 6.95 in data set [3].

On to `Cc1ccccc1COc1ccc(S(=O)(=O)N2CCN(C(=O)Nc3ccccc3)[C@@H](C)[C@@H]2C(=O)NO)cc1`, for which the pIC50 is 4.92 in [1], 5.66 in data set [2] and 7.59 in data set [4].

For `CC(=O)N1CCN(S(=O)(=O)c2ccc(OCc3ccnc4ccccc34)cc2)[C@@H](C(=O)NO)[C@@H]1C`, the pIC50 in [1] was 6.52; in data set [2], 6.08; in data set [3], 7.77.

As a reminder, the pIC50 is the negative decadic logarithm of the IC50, by convention in mol/L. One may read the inhibition in vivo as the drop in the measured response relative to a control, in per cent. A higher inhibition in vivo goes with a strong effect. As a reminder, the half-life is how long it takes for the measured level to halve. Broadly, the ED50 is the dose at which the effect has come halfway, by size or by number of responders.
